Tested on: C57BL/6 male mice
Assay: Urinary glucose excretion test (UGE test)
Assay type: in vivo
Settings: 3 mg/kg oral (Examples 13 to 38), 2 g/kg glucose after 30 minutes, urine collected for 24 hours
Experimental: The pharmaceutical efficacies of the compounds prepared in the Examples were investigated by a urinary glucose excretion test using C57BL/6 male mice (8-week-old, prepared and supplied from Orient Chemical Co. Ltd.).
Two mice were used in each group. The mice were fasted for 16 hours, and the compound of each of the Examples [10 mg/kg of the compound of Examples 1 to 12; and 3 mg/kg of the compound of Examples 13 to 38] was dissolved in a vehicle [a mixed solution of 5% 1-methyl-2-pyrrolidinone, 20% PEG, and 75% 20 mM sodium diphosphate], and orally administered to the mice. After 30 minutes, 2 g/kg of glucose was orally administered to the mice in all the groups. Thereafter, the mice were immediately put into a metabolic cage, and urine was collected for 24 hours. The mice were freely fed an hour after the administration of glucose.
The results obtained from the test, that is, the results obtained by measuring urinary glucose excretion in the C57BL/6 male mice according to the compounds of the Examples, are listed in Table 5.

SMILES | UGE [mg/20 g/24 hr]
CCOc1ccc(Cc2cc([C@@H]3O[C@H](CO)[C@@H](O)[C@H](O)[C@H]3O)cc3c2CCC3)cc1 [Example 13, (2S,3R,4R,5S,6R)-2-(7-(4-ethoxybenzyl)-2,3-dihydro-1H-inden-5-yl)-6-(hydroxymethyl)tetrahydro-2H-pyran-3,4,5-triol] | 1.7
CCCc1ccc(Cc2cc([C@@H]3O[C@H](CO)[C@@H](O)[C@H](O)[C@H]3O)cc3c2CCC3)cc1 [Example 17, (2R,3S,4R,5R,6S)-2-(hydroxymethyl)-6-(7-(4-propylbenzyl)-2,3-dihydro-1H-inden-5-yl)tetrahydro-2H-pyran-3,4,5-triol] | 1.0
CC(C)c1ccc(Cc2cc([C@@H]3O[C@H](CO)[C@@H](O)[C@H](O)[C@H]3O)cc3c2CCC3)cc1 [Example 18, (2R,3S,4R,5R,6S)-2-(hydroxymethyl)-6-(7-(4-isopropylbenzyl)-2,3-dihydro-1H-inden-5-yl)tetrahydro-2H-pyran-3,4,5-triol] | 7.0
CCOc1ccc(Cc2cc([C@@H]3O[C@H](CO)[C@@H](O)[C@H](O)[C@H]3O)cc3c2CCC3)cc1F [Example 20, (2S,3R,4R,5S,6R)-2-(7-(4-ethoxy-3-fluorobenzyl)-2,3-dihydro-1H-inden-5-yl)-6-(hydroxymethyl)tetrahydro-2H-pyran-3,4,5-triol] | 0.6
CCOc1ccc(Cc2cc([C@@H]3O[C@H](CO)[C@@H](O)[C@H](O)[C@H]3O)cc3c2CCC3)c(F)c1 [Example 21, (2S,3R,4R,5S,6R)-2-(7-(4-ethoxy-2-fluorobenzyl)-2,3-dihydro-1H-inden-5-yl)-6-(hydroxymethyl)tetrahydro-2H-pyran-3,4,5-triol] | 4.2
Cc1ccc(Cc2cc([C@@H]3O[C@H](CO)[C@@H](O)[C@H](O)[C@H]3O)cc3c2CCC3)cc1F [Example 25, (2S,3R,4R,5S,6R)-2-(7-(3-fluoro-4-methylbenzyl)-2,3-dihydro-1H-inden-5-yl)-6-(hydroxymethyl)tetrahydro-2H-pyran-3,4,5-triol] | 5.5
Cc1ccc(Cc2cc([C@@H]3O[C@H](CO)[C@@H](O)[C@H](O)[C@H]3O)cc3c2CCC3)c(F)c1 [Example 26, (2S,3R,4R,5S,6R)-2-(7-(2-fluoro-4-methylbenzyl)-2,3-dihydro-1H-inden-5-yl)-6-(hydroxymethyl)tetrahydro-2H-pyran-3,4,5-triol] | 4.8

Same assay, conditions: 10 mg/kg oral (Examples 1 to 12), 2 g/kg glucose after 30 minutes, urine collected for 24 hours

SMILES | UGE [mg/20 g/24 hr]
CCOc1ccc(Cc2cc([C@@H]3O[C@H](CO)[C@@H](O)[C@H](O)[C@H]3O)cc3c2OCC3)cc1 [Example 1, (2S,3R,4R,5S,6R)-2-(7-(4-ethoxybenzyl)-2,3-dihydrobenzofuran-5-yl)-6-hydroxymethyl-tetrahydro-2H-pyran-3,4,5-triol] | 1.2
CCc1ccc(Cc2cc([C@@H]3O[C@H](CO)[C@@H](O)[C@H](O)[C@H]3O)cc3c2OCC3)cc1 [Example 2, (2S,3R,4R,5S,6R)-2-(7-(4-ethylbenzyl)-2,3-dihydrobenzofuran-5-yl)-6-hydroxymethyl-tetrahydro-2H-pyran-3,4,5-triol] | 8.3
CCCc1ccc(Cc2cc([C@@H]3O[C@H](CO)[C@@H](O)[C@H](O)[C@H]3O)cc3c2OCC3)cc1 [Example 3, (2R,3S,4R,5R,6S)-2-hydroxymethyl-6-(7-(4-n-propylbenzyl)-2,3-dihydrobenzofuran-5-yl)-tetrahydro-2H-pyran-3,4,5-triol] | 3.7
OC[C@H]1O[C@@H](c2cc3c(c(Cc4ccc(C(F)(F)F)cc4)c2)OCC3)[C@H](O)[C@@H](O)[C@@H]1O [Example 4, (2R,3S,4R,5R,6S)-2-hydroxymethyl-6-(7-(4-trifluoromethylbenzyl)-2,3-dihydrobenzofuran-5-yl)tetrahydro-2H-pyran-3,4,5-triol] | 4.6
OC[C@H]1O[C@@H](c2cc3c(c(Cc4ccc(OC(F)(F)F)cc4)c2)OCC3)[C@H](O)[C@@H](O)[C@@H]1O [Example 5, (2R,3S,4R,5R,6S)-2-hydroxymethyl-6-(7-(4-trifluoromethoxybenzyl)-2,3-dihydrobenzofuran-5-yl)tetrahydro-2H-pyran-3,4,5-triol] | 3.7
OC[C@H]1O[C@@H](c2cc3c(c(Cc4ccc(F)cc4)c2)OCC3)[C@H](O)[C@@H](O)[C@@H]1O [Example 6, (2S,3R,4R,5S,6R)-2-(7-(4-fluorobenzyl)-2,3-dihydrobenzofuran-5-yl)-6-(hydroxymethyl)tetrahydro-2H-pyran-3,4,5-triol] | 3.9
OC[C@H]1O[C@@H](c2cc3c(c(Cc4ccc5c(c4)OCCO5)c2)OCC3)[C@H](O)[C@@H](O)[C@@H]1O [Example 7, (2S,3R,4R,5S,6R)-2-(7-((2,3-dihydrobenzo[b][1,4]dioxin-6-yl)methyl)-2,3-dihydrobenzofuran-5-yl)-6-(hydroxymethyl)tetrahydro-2H-pyran-3,4,5-triol] | 2.8
OC[C@H]1O[C@@H](c2cc3c(c(Cc4ccc(OCC5CC5)cc4)c2)OCC3)[C@H](O)[C@@H](O)[C@@H]1O [Example 8, (2S,3R,4R,5S,6R)-2-(7-(4-(cyclopropylmethoxy)benzyl)-2,3-dihydrobenzofuran-5-yl)-6-(hydroxymethyl)tetrahydro-2H-pyran-3,4,5-triol] | 4.3
CCOc1ccc(Cc2cc([C@@H]3O[C@H](CO)[C@@H](O)[C@H](O)[C@H]3O)cc3c2OCC3)cc1F [Example 9, (2S,3R,4R,5S,6R)-2-(7-(4-ethoxy-3-fluorobenzyl)-2,3-dihydrobenzofuran-5-yl)-6-(hydroxymethyl)tetrahydro-2H-pyran-3,4,5-triol] | 4.6
CCOc1ccc(Cc2cc([C@@H]3O[C@H](CO)[C@@H](O)[C@H](O)[C@H]3O)cc3c2OCC3)c(F)c1 [Example 10, (2S,3R,4R,5S,6R)-2-(7-(4-ethoxy-2-fluorobenzyl)-2,3-dihydrobenzofuran-5-yl)-6-(hydroxymethyl)tetrahydro-2H-pyran-3,4,5-triol] | 3.2
OC[C@H]1O[C@@H](c2cc3c(c(Cc4ccc(O)cc4)c2)OCC3)[C@H](O)[C@@H](O)[C@@H]1O [Example 11, (2S,3R,4R,5S,6R)-2-(7-(4-hydroxybenzyl)-2,3-dihydrobenzofuran-5-yl)-6-(hydroxymethyl)tetrahydro-2H-pyran-3,4,5-triol] | 3.0
CS(=O)(=O)CCCOc1ccc(Cc2cc(C3O[C@H](CO)[C@@H](O)[C@H](O)[C@H]3O)cc3c2OCC3)cc1 (stereo partly shown) [Example 12] | 0

From patent US9828366B2, “Bicyclic derivatives and pharmaceutical composition including the same” (HANMI PHARM. CO., LTD., priority 2014, dated 2017)
